Laboratory results: patent publication US10669283B2, “Compound and pharmacologically acceptable salt thereof” (MEIJI SEIKA PHARMA CO., LTD., priority 2016, dated 2020)
pIC50: −log10 of the molar value.

Tested on: PDE4
Assay: PDE4 inhibition, scintillation proximity assay (SPA);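 for PDE4 Inhibitory Activity (concentration for the inhibition rate of 50%): A below 100 nM B 100 to below 1000 nM C 1000 nM or more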
Assay type: biochemical
Conditions: scintillation proximity assay (SPA); evaluated as classes A, B, C; read-out: PDE4 Inhibitory Activity (concentration for the inhibition rate of 50%)
Procedure: The PDE4 inhibitory activity was measured using scintillation proximity assay (SPA) as follows. A sample compound dissolved in dimethyl sulfoxide was diluted 1:10 in reaction buffer solution which contained 50 mM of Tris-HCl with pH 7.4, 8.3 mM of MgCl2, 1.7 mM of EGTA, and 3 mg/mL of bovine serum albumin (BSA). Then, 10 μL of the diluted solution was added in a 96-well assay plate. Moreover, 50 μL of PDE4 diluted 1:375 in the reaction buffer solution was added, and then 40 μL of [2,8-^3H]-adenosine-3′,5′-cyclic phosphate triethylammonium salt diluted 1:1000 in the reaction buffer solution was added. The mixture was allowed to stand at room temperature for 120 minutes. Thereafter, […] of RNA binding YSi-SPA beads suspension containing ZnSO4 was added and the mixture was allowed to stand at room temperature for 15 minutes, followed by adsorption of the enzyme reaction product to the beads. After that, the radioactivity was measured using a liquid scintillation counter for a 96-well plate. The mixture without the enzyme preparation added but only the reaction buffer solution added is a blank, and the mixture with the enzyme preparation added and only dimethyl sulfoxide added instead of the sample solution is a control.

| Structure (SMILES) | pIC50 |
| --- | --- |
| CC(C)(O)C1CC(Oc2ccc(-c3nccs3)c3oc(N4CC5CC(C4)N5)nc23)C1 (centres unmarked) [Example 267, 2-(3-((2-(3,6-Diazabicyclo[3.1.1]heptan-3-yl)-7-(thiazol-2-yl)benzo[d]oxazol-4-yl)oxy)cyclobutyl)propan-2-ol] | > 7.00 |
| OCc1ccc(-c2nccs2)c2oc(N3CC4CC(C3)N4)nc12 [Example 133, (2-(3,6-Diazabicyclo[3.1.1]heptan-3-yl)-7-(thiazol-2-yl)benzo[d]oxazol-4-yl)methanol] | > 7.00 |
| OC(c1cc(-c2nccs2)c2oc(N3CC4CCC(C3)N4)nc2c1)C(F)(F)F (centres unmarked) [Example 139, 1-(2-(3,8-Diazabicyclo[3.2.1]octan-3-yl)-7-(thiazol-2-yl)benzo[d]oxazol-5-yl)-2,2,2-trifluoroethan-1-ol] | > 7.00 |
| O=C(c1cc(-c2nccs2)c2oc(N3CC4CCC(C3)N4)nc2c1OC(F)(F)F)N1CC(O)(C(F)(F)F)C1 [Example 194, (2-(3,8-Diazabicyclo[3.2.1]octan-3-yl)-7-(thiazol-2-yl)-4-(trifluoromethoxy)benzo[d]oxazol-5-yl)(3-hydroxy-3-(trifluoromethyl)azetidin-1-yl)methanone] | 6.00 to 7.00 |
| OC(c1cc(-c2nccs2)c2oc(N3CC4CC(C3)N4)nc2c1OC(F)(F)F)C(F)F (centres unmarked) [Example 293, 1-(2-(3,6-Diazabicyclo[3.1.1]heptan-3-yl)-7-(thiazol-2-yl)-4-(trifluoromethoxy)benzo[d]oxazol-5-yl)-2,2-difluoroethan-1-ol] | > 7.00 |
| O=C(O)COC(c1ccc(-c2nccs2)c2oc(N3CC4CC(C3)N4)nc12)C(F)(F)F (centres unmarked) [Example 253, 2-(1-(2-(3,6-Diazabicyclo[3.1.1]heptan-3-yl)-7-(thiazol-2-yl)benzo[d]oxazol-4-yl)-2,2,2-trifluoroethoxy)acetic acid] | > 7.00 |
| COC(C)(c1cc(-c2nccs2)c2oc(N3CC4CCC(C3)N4)nc2c1)C(F)(F)F (centres unmarked) [Example 102, 2-(3,8-Diazabicyclo[3.2.1]octan-3-yl)-7-(thiazol-2-yl)-5-(1,1,1-trifluoro-2-methoxypropan-2-yl)benzo[d]oxazole] | > 7.00 |
| COC(C)(C)c1cc(-c2nccs2)c2oc(N3CC4CCC(C3)N4)nc2c1C(F)(F)F [Example 171, 2-(3,8-Diazabicyclo[3.2.1]octan-3-yl)-5-(2-methoxypropan-2-yl)-7-(thiazol-2-yl)-4-(trifluoromethyl)benzo[d]oxazole] | > 7.00 |
| CC(C)c1cc(-c2nccs2)c2oc(N3CC4CC(C3)N4)nc2c1 [Example 22] | > 7.00 |
| FC(F)(F)Oc1ccc(-c2nccs2)c2oc(N3CC4CCC(C3)N4)nc12 [Example 28, 2-(3,8-Diazabicyclo[3.2.1]octan-3-yl)-7-(thiazol-2-yl)-4-(trifluoromethoxy)benzo[d]oxazole] | > 7.00 |
| COc1ccc(-c2nccs2)c2oc(N3CC4CCCC(C3)N4)nc12 [Example 77, 2-(3,9-Diazabicyclo[3.3.1]nonan-3-yl)-4-methoxy-7-(thiazol-2-yl)benzo[d]oxazole] | > 7.00 |
| COC(C)(C)c1cc(-c2nccs2)c2oc(N3CC4CCC(C3)N4)nc2c1 [Example 175, 2-(3,8-Diazabicyclo[3.2.1]octan-3-yl)-5-(2-methoxypropan-2-yl)-7-(thiazol-2-yl)benzo[d]oxazole] | > 7.00 |
| CC(O)c1cc(-c2nccs2)c2oc(N3CC4CC(C3)N4)nc2c1OC(F)(F)F (centres unmarked) [Example 273, 1-(2-(3,6-Diazabicyclo[3.1.1]heptan-3-yl)-7-(thiazol-2-yl)-4-(trifluoromethoxy)benzo[d]oxazol-5-yl)ethan-1-ol] | > 7.00 |
| CC(O)(c1cc(-c2nccs2)c2oc(N3CC4CCC(C3)N4)nc2c1)C(F)(F)F (centres unmarked) [Example 159, 2-(2-(3,8-Diazabicyclo[3.2.1]octan-3-yl)-7-(thiazol-2-yl)benzo[d]oxazol-5-yl)-1,1,1-trifluoropropan-2-ol] | > 7.00 |
| CC(C)c1cc(-c2nccs2)c2oc(N3CC4CCC(C3)N4)nc2c1 [Example 21, 2-(3,8-Diazabicyclo[3.2.1]octan-3-yl)-5-isopropyl-7-(thiazol-2-yl)benzo[d]oxazole] | > 7.00 |
| CC(C)(O)C(Oc1ccc(-c2nccs2)c2oc(N3CC4CC(C3)N4)nc12)C(F)(F)F (centres unmarked) [Example 313, 3-((2-(3,6-Diazabicyclo[3.1.1]heptan-3-yl)-7-(thiazol-2-yl)benzo[d]oxazol-4-yl)oxy)-4,4,4-trifluoro-2-methylbutan-2-ol] | > 7.00 |
| COC(c1ccc(-c2nccs2)c2oc(N3CC4CC(C3)N4)nc12)C(F)(F)F (centres unmarked) [Example 123, 2-(3,6-Diazabicyclo[3.1.1]heptan-3-yl)-7-(thiazol-2-yl)-4-(2,2,2-trifluoro-1-methoxyethyl)benzo[d]oxazole] | > 7.00 |
| COCCOC(c1cc(-c2nccs2)c2oc(N3CC4CCC(C3)N4)nc2c1)C(F)(F)F (centres unmarked) [Example 147, 2-(3,8-Diazabicyclo[3.2.1]octan-3-yl)-7-(thiazol-2-yl)-5-(2,2,2-trifluoro-1-(2-methoxyethoxy)ethyl)benzo[d]oxazole] | > 7.00 |
| CC(C)(O)c1cc(-c2nccs2)c2oc(N3CC4CCC(C3)N4)nc2c1OC(F)(F)F [Example 195, 2-(2-(3,8-Diazabicyclo[3.2.1]octan-3-yl)-7-(thiazol-2-yl)-4-(trifluoromethoxy)benzo[d]oxazol-5-yl)propan-2-ol] | > 7.00 |
| CC(O)(c1ccc(-c2nccs2)c2oc(N3CC4CC(C3)N4)nc12)C(F)F (centres unmarked) [Example 297, 2-(2-(3,6-Diazabicyclo[3.1.1]heptan-3-yl)-7-(thiazol-2-yl)benzo[d]oxazol-4-yl)-1,1-difluoropropan-2-ol] | > 7.00 |
| CCOC(=O)c1cc(-c2nccs2)c2oc(N3CC4CCCC(C3)N4)nc2c1 [Example 89, Ethyl 2-(3,9-diazabicyclo[3.3.1]nonan-3-yl)-7-(thiazol-2-yl) benzo[d]oxazole-5-carboxylate] | > 7.00 |
| FC(F)(F)Oc1c(Cl)cc(-c2ncco2)c2oc(N3CC4CCC(C3)N4)nc12 [Example 9, 2-(3,8-Diazabicyclo[3.2.1]octan-3-yl)-5-chloro-7-(oxazol-2-yl)-4-(trifluoromethoxy)benzo[d]oxazole] | > 7.00 |
| OC1(c2cc(-c3nccs3)c3oc(N4CC5CCC(C4)N5)nc3c2OC(F)(F)F)CC1 [Example 274, 1-(2-(3,8-Diazabicyclo[3.2.1]octan-3-yl)-7-(thiazol-2-yl)-4-(trifluoromethoxy)benzo[d]oxazol-5-yl)cyclopropan-1-ol] | > 7.00 |
| COC(c1cc(-c2nccs2)c2oc(N3CC4CCC(C3)N4)nc2c1)C(F)F (centres unmarked) [Example 105, 2-(3,8-Diazabicyclo[3.2.1]octan-3-yl)-5-(2,2-difluoro-1-methoxyethyl)-7-(thiazol-2-yl)benzo[d]oxazole] | > 7.00 |

Same assay, conditions: scintillation proximity assay; class symbols; read-out: PDE4 Inhibitory Activity

| Structure (SMILES) | pIC50 |
| --- | --- |
| C=CC(F)(F)Oc1ccc(-c2nccs2)c2oc(N3CC4CC(C3)N4)nc12 [Example 351, 2-(3,6-diazabicyclo[3.1.1]heptan-3-yl)-4-((1,1-difluoroallyl)oxy)-7-(thiazol-2-yl)benzo[d] oxazole] | > 7.00 |
| CNS(=O)(=O)c1ccc(-c2nccs2)c2oc(N3CC4CC(C3)N4)nc12 [Example 386, 2-(3,6-diazabicyclo[3.1.1]heptan-3-yl)-N-methyl-7-(thiazol-2-yl)benzo[d] oxazole-4-sulfonamide] | > 7.00 |
